This note sets out measurements from PMC11784096, “Synthesis, antibacterial evaluation and in silico studies of novel 2-(benzo[d]thiazol-2-yl)-N-arylacetamides and their derivatives as potential DHFR inhibitors” (BMC Chemistry, 2025).

Converted amounts (≈) assume the structure as drawn.

For orientation: MIC means the lowest concentration that inhibits growth of the organism. High values mean weaker potency, low ones greater potency. By IC50 is commonly meant the concentration at which inhibition is half-maximal. Read a high IC50 as a need for much substance.

The subject of assay [1] is E. coli. Briefly: Agar diffusion method, inhibition zone diameter. The class given is cell-based, Escherichia coli. To be noted: Gram-negative. The source says:
(§1) The bacterial growth inhibition activity of most of the newly synthesized compounds was examined against different Gram-positive and Gram-negative strains. The Agar diffusion method was used to assess the antibacterial and antifungal activity. The Gram-negative strains were: E. coli, K. pneumonia, P. aeruginosa and A. baumannii, the Gram-positive strains were: St. aureus, St. mutans and the standard antibiotics were gentamicin, tigecycline and ampicillin.
(§2) The agar-based media plate surface was inoculated by spreading a volume of the microbial inoculum over the entire agar surface.
(§3) Using a sterile cork borer or a tip, a hole with a diameter of 6 to 8 mm was made.
(§4) Using a micropipette, (20 µL) volume of the antimicrobial agent or extract solution at the desired concentration was introduced into the well.
(§5) The inoculated plates were incubated under suitable conditions depending upon the tested microorganism. The antimicrobial agent diffused through the agar medium and inhibited the growth of the microbial strain tested.
(§6) After a suitable incubation period (16 to 48 hours) according to the optimum growth conditions, the resulting inhibition zone diameters (in mm) around the wells were measured to the nearest whole millimeter at the point at which there is a prominent reduction in growth. If growth is insufficient at the recommended times, the plates should be re-incubated and read later.
On the technique in general: In agar diffusion tests the substance spreads into inoculated agar from a disc or well.

The test system of assay [2] is K. pneumonia. Briefly: Agar diffusion method, inhibition zone diameter. To be noted: Gram-negative. The class given is cell-based, Klebsiella pneumonia.
Source text: as §1, §2, §3, §4, §5, §6

For assay [3], the system named is St. aureus. Briefly: Agar diffusion method, inhibition zone diameter. In kind it is cell-based, Staphylococcus aureus. To be noted: Gram-positive.
Source text: as §1, §2, §3, §4, §5, §6

The subject of assay [4] is E. coli. Briefly: Minimum inhibition concentration, serial dilution. In kind it is cell-based, Escherichia coli. To be noted: Escherichia coli, 37 °C. As to the method:
(§7) For each strain, three to five isolated colonies were selected from the fresh agar plate and transferred into a tube containing 3-4 ml of the sterile broth medium. The bacterial suspension was mixed well and incubated at 35-37 °C for 2-6 hours. […] After that, 1 mg of the tested compound (antimicrobial agent) was dissolved in 1 ml of DMSO and a two-fold serial dilution was done using a broth medium. A fixed volume of the prepared bacterial inoculum was added to each tube and incubated at 37 °C for 16-20 hours. The MIC is defined as the lowest concentration of the antimicrobial agent that inhibits visible growth of the tested isolate as observed with the unaided eye.

Assay [5] concerns K. pneumonia. Briefly: Minimum inhibition concentration, serial dilution. The class given is cell-based, Klebsiella pneumonia. To be noted: Klebsiella pneumoniae, 37 °C. The method, then:
as §7

The subject of assay [6] is A. baumannii. Briefly: Minimum inhibition concentration, serial dilution. The class given is cell-based, Acinetobacter baumannii. The settings on record: Acinetobacter baumannii, 37 °C. The method, then: as §7
Assay [7] concerns St. aureus. Briefly: Minimum inhibition concentration, serial dilution. In kind it is cell-based. The settings on record: Staphylococcus aureus, 37 °C. As to the method:
as §7

For assay [8], the system named is St. mutans. Briefly: Minimum inhibition concentration, serial dilution. The settings on record: Streptococcus mutans, 37 °C. The class given is cell-based. The method, then: as §7
Another assay has as its system any bacterial strain. Briefly: Agar diffusion method, stated for all strains together. In kind it is cell-based. To be noted: in words.
Source text: as §1, §2, §3, §4, §5, §6

In assay [9] the test system is P. aeruginosa. Briefly: Agar diffusion method, inhibition zone diameter. In kind it is cell-based, Pseudomonas aeruginosa. The settings on record: Gram-negative.
Source text: as §1, §2, §3, §4, §5, §6

Assay [10] relates to A. baumannii. Briefly: Agar diffusion method, inhibition zone diameter. The settings on record: Gram-negative. The class given is cell-based, Acinetobacter baumannii.
Source text: as §1, §2, §3, §4, §5, §6

Assay [11] has as its system St. mutans. Briefly: Agar diffusion method, inhibition zone diameter. The class given is cell-based. To be noted: Gram-positive.
Source text: as §1, §2, §3, §4, §5, §6

The subject of assay [12] is P. aeruginosa. Briefly: Minimum inhibition concentration, serial dilution. The class given is cell-based, Pseudomonas aeruginosa. To be noted: Pseudomonas aeruginosa, 37 °C. The method, then: as §7
Assay [13] has as its target dihydrofolate reductase in Escherichia coli (Escherichia coli, UniProt P0ABQ4). Briefly: In vitro DHFR inhibition assessment. In kind it is biochemical. To be noted: for inhibitory activity against DHFR relative to trimethoprim: fold of trimethoprim, in words.
In assay [14] the test system is all tested Gram-negative and Gram-positive strains. Briefly: Minimum inhibition concentration, stated for all tested strains together. The class given is cell-based. As to the method:
as §7

dihydrofolate reductase in Escherichia coli, sequence (P0ABQ4 whole entry): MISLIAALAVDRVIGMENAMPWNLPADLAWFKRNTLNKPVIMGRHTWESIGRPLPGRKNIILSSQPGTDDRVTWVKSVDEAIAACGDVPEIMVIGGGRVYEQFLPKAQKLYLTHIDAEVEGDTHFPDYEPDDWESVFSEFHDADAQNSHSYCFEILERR

As for `O=C(Cc1nc2ccccc2s1)Nc1ccccc1` [2a, 2-(Benzo[d]thiazol-2-yl)-N-phenylacetamide], in the assay with E. coli [1], the “IZD E. coli” value was determined as 34 ± 0.5 mm. Further, in the assay with K. pneumonia [2], the “IZD K. pneumonia” value was found to be 34 ± 0.8 mm. Further, the “IZD St. aureus” value in the assay on St. aureus [3] came to 31 ± 1 mm. For the same compound, the MIC was determined as 0.25 µg/mL (≈ 0.932 µM) in the assay with E. coli [4]; 0.125 µg/mL (≈ 0.466 µM) in the assay with K. pneumonia [5]; 0.125 µg/mL (≈ 0.466 µM) in the assay with A. baumannii [6]; 0.25 µg/mL (≈ 0.932 µM) against St. aureus [7]; 0.0625 µg/mL (≈ 0.233 µM) in the assay on St. mutans [8].

As for `Cc1ccc(NC(=O)Cc2nc3ccccc3s2)cc1` [2b, 2-(Benzo[d]thiazol-2-yl)-N-(p-tolyl)acetamide], the “antibacterial activity against any bacterial strain” value in the assay with any bacterial strain is “no activity”.

Take `O=C(Cc1nc2ccccc2s1)Nc1ccc(Cl)cc1` [2c, 2-(Benzo[d]thiazol-2-yl)-N-(4-chlorophenyl)acetamide]: the “IZD E. coli” value with E. coli [1] came to 35 ± 1 mm. The “IZD K. pneumonia” value in the assay with K. pneumonia [2] came out at 35 ± 1 mm. For the same compound, in the assay with P. aeruginosa [9], the “IZD P. aeruginosa” value is 36 ± 1 mm. In the assay with A. baumannii [10], the “IZD A. baumannii” value is reported as 35 ± 1 mm. In addition, the “IZD St. aureus” value with St. aureus [3] is 28 ± 1 mm. Further, the “IZD St. mutans” value in the assay on St. mutans [11] was determined as 25 ± 1 mm. The minimal inhibitory concentration (MIC) with E. coli [4], with K. pneumonia [5], in the assay with P. aeruginosa [12], in the assay with A. baumannii [6], against St. aureus [7] and against St. mutans [8] was 0.0312 µg/mL (≈ 0.103 µM) throughout. In assay [14], this compound registered a minimum inhibitory concentration (MIC) of 0.0312 µg/mL (≈ 0.103 µM). In addition, inhibition in assay [13] was half-maximal at 3.8 ± 0.198 µM (IC50). For the same compound, in assay [13], the “inhibitory activity against DHFR relative to trimethoprim” value is “about two-fold”.

Take `COc1ccc(C=C(C(=O)Nc2ccc(Cl)cc2)c2nc3ccccc3s2)cc1OC` [4k, 2-(Benzo[d]thiazol-2-yl)-N-(4-chlorophenyl)-3-(3,4-dimethoxyphenyl)acrylamide]: in the assay on E. coli [1], the “IZD E. coli” value is given as 22 ± 1.1 mm. Moreover, the “IZD K. pneumonia” value in the assay with K. pneumonia [2] is 25 ± 1.1 mm. In addition, the “IZD P. aeruginosa” value with P. aeruginosa [9] turned out to be 20 ± 1 mm. For the same compound, in the assay with A. baumannii [10], the “IZD A. baumannii” value is given as 23 ± 1.1 mm. Also, the “IZD St. aureus” value in the assay with St. aureus [3] came out at 25 ± 1.1 mm. Moreover, the “IZD St. mutans” value with St. mutans [11] worked out at 18 ± 1.1 mm. In addition, the minimal inhibitory concentration (MIC) against E. coli [4] is 0.125 µg/mL (≈ 0.277 µM); in the assay on K. pneumonia [5] it was 0.0625 µg/mL (≈ 0.139 µM); against P. aeruginosa [12] it was 0.125 µg/mL (≈ 0.277 µM); in the assay with A. baumannii [6], 0.0312 µg/mL (≈ 0.0693 µM); in the assay with St. aureus [7] it was 0.0625 µg/mL (≈ 0.139 µM).

For `Cc1ccc(NC(=O)C(=Cc2ccc(OC(=O)c3ccccc3)cc2)c2nc3ccccc3s2)cc1` [4n, 4-(2-(Benzo[d]thiazol-2-yl)-3-oxo-3-(p-tolylamino)prop-1-en-1-yl)phenylbenzoate], the “antibacterial activity against any bacterial strain” value in the assay on any bacterial strain is “no antibacterial activity”.

Turning to `Cc1ccc(-n2c(N)c(C#N)c(-c3ccccc3)c(-c3nc4ccccc4s3)c2=O)cc1` [11c, 2-Amino-5-(benzo[d]thiazol-2-yl)-6-oxo-4-phenyl-1-(p-tolyl)-1,6-dihydropyridine-3-carbonitrile], the “IZD E. coli” value with E. coli [1] was found to be 35 ± 1 mm. The “IZD K. pneumonia” value with K. pneumonia [2] was determined as 36 ± 1 mm. Also, in the assay on P. aeruginosa [9], the “IZD P. aeruginosa” value was found to be 35 ± 1 mm. For the same compound, the “IZD A. baumannii” value in the assay on A. baumannii [10] came out at 35 ± 1 mm. Moreover, the MIC with E. coli [4], with K. pneumonia [5], in the assay with P. aeruginosa [12] and with A. baumannii [6] was 0.0315 µg/mL (≈ 0.0725 µM) throughout. This compound also showed a half-inhibitory concentration (IC50) in [13] of 15 ± 0.785 µM. The “inhibitory activity against DHFR relative to trimethoprim” value in [13] is given as “half”.

For the compound `CC1(C)S[C@@H]2[C@H](NC(=O)[C@H](N)c3ccccc3)C(=O)N2[C@H]1C(=O)O` [Ampicillin, reference compound], the “IZD St. aureus” value in the assay with St. aureus [3] is 29 ± 0.2 mm. The “IZD St. mutans” value in the assay with St. mutans [11] is recorded as 22 ± 0.1 mm. Besides, the MIC in the assay on St. aureus [7] and in the assay with St. mutans [8] was 0.0625 µg/mL (≈ 0.179 µM) in each case.
